From ChEMBL document CHEMBL1146672, “Discovery and SAR development of 2-(phenylamino) imidazolines as prostacyclin receptor antagonists [corrected]” (Bioorg Med Chem Lett, 2004) come the findings set out here.

One experiment has as its system Rattus norvegicus. In words: Effective dose was determined against carrageenan-induced paw hyperalgesia in the rat on peroral administration. Format: functional. Particulars: po. On the technique in general: The carrageenan paw model is a standard test of acute inflammation.
For `CC(C)Oc1ccc(Cc2ccc(NC3=NCCN3)cc2)cc1`, the 50% effective dose (ED50) (as a rule, the midpoint of the dose-response relation) was found to be 18 mg/kg.

The test system of another experiment is Rattus norvegicus. In words: Effective dose was determined for analgesic activity in rat on i.p. administration using acetic acid induced writhing assay. Format: functional. As to conditions: ip. A general note: An intraperitoneal irritant provokes the stretching counted in writhing tests.
As to `CC(C)Oc1ccc(Cc2ccc(NC3=NCCN3)cc2)cc1`, the ED50 turned out to be 4 mg/kg.

A further experiment has as its system SH-SY5Y. In words: Compound was tested for antagonism of carbaprostacyclin-stimulated cAMP accumulation in human SH-SY5Y neuroblastoma cells.
Settings: not given
Format: functional.
Take `c1cc(NC2=NCCN2)ccc1Cc1ccc(OCC2CCOCC2)cc1`: the pKB – broadly, −log10 of the KB, conventionally taken in molar units – is on record as 8.5.

`CCCCCCOc1ccc(Cc2ccc(NC3=NCCN3)cc2)cc1` yielded a pKB of 8.2.

Consider `c1ccc(COc2ccc(Cc3ccc(NC4=NCCN4)cc3)cc2)cc1`, for which the pKB is on record as 7.7.

As to `c1cc(NC2=NCCN2)ccc1Cc1ccc(OC2CCCC2)cc1`, the pKB was 8.9.

Consider `c1cc(NC2=NCCN2)ccc1Cc1ccc(OC2CCCCC2)cc1`, for which the pKB amounted to 8.6.

As for `FC(F)(F)COc1ccc(Cc2ccc(NC3=NCCN3)cc2)cc1`, the pKB was 8.7.

In turn, `CC(C)Oc1ccc(Cc2ccc(NC3=NCCN3)cc2)cc1` had a pKB of 8.8.

With `CCCOc1ccc(Cc2ccc(NC3=NCCN3)cc2)cc1`, the pKB came out at 8.8.

Compound `OCCOc1ccc(Cc2ccc(NC3=NCCN3)cc2)cc1` yielded a pKB of 8.

Take `CC(C)COc1ccc(Cc2ccc(NC3=NCCN3)cc2)cc1`: the negative logarithm of the KB (pKB) is 8.8.

In turn, `CCCCOc1ccc(Cc2ccc(NC3=NCCN3)cc2)cc1` returned a pKB of 9.

As for `COCCOc1ccc(Cc2ccc(NC3=NCCN3)cc2)cc1`, the pKB is 8.

`CCOc1ccc(Cc2ccc(NC3=NCCN3)cc2)cc1` registered a negative-log KB (pKB) of 8.2.

On to `COc1ccc(Cc2ccc(NC3=NCCN3)cc2)cc1`, for which the pKB came to 7.7.

`c1cc(NC2=NCCN2)ccc1Cc1ccc(OC2CCOCC2)cc1`: the negative logarithm of the KB (pKB) turned out to be 8.4.

The test system of the next experiment is Rattus norvegicus. In words: Effective dose was determined against carrageenan-induced paw hyperalgesia in the rat on i.v. administration. Format: functional. Particulars: iv.
`CC(C)Oc1ccc(Cc2ccc(NC3=NCCN3)cc2)cc1`: the 50% effect level (ED50) was put at a dose of 2.8 mg/kg.
